Reference: ChEMBL document CHEMBL3779823, “Structure of amyloid oligomers and their mechanisms of toxicities: Targeting amyloid oligomers using novel therapeutic approaches” (2016)

System: Mus musculus
Assay: Reduction in Abeta oligomers levels in Tg2576 mouse administered for 4 weeks
Assay type: functional

With `NS(=O)(=O)c1cc(C(=O)O)c(NCc2ccco2)cc1Cl` [FUROSEMIDE] the “inhibition (INH)” value was 30%.
